{"source": "patent US5783179A", "about": "“C-reactive protein fragment with immunomodulatory activity” (Syntex (U.S.A.) Inc., priority 1991, dated 1998)", "test_system": "T241 fibrosarcoma lung metastases", "assay": "Mouse T241 fibrosarcoma model: evaluation of lung metastases after amputation of the tumor-bearing foot", "assay_type": "in vivo, male C57BL/6 mice", "conditions": "Day 35, soluble CRP-peptide 1.25 μg per dose", "procedure": "The CRP-peptide was assayed for activity in the mouse T241 fibrosarcoma model, whereby the ability to block lung metastasis formation is measured.\nThe procedures have been described in detail previously (Deodhar, et al, Cancer Res 42:5084-5088, 1982). Suspensions of 5×10^5 viable T241 fibrosarcoma cells in 0.1 ml of Hanks's balanced salt solution were injected subcutaneously into the dorsum of one hind foot of ten male C57BL/6 mice (Jackson Laboratories, Bar Harbor, Me.) per experiment. Seventeen days after tumor implantation, the tumor-bearing foot was amputated below the knee. The mean tumor weight at this stage was 152 ±58 (S.E.M.) mg. The tumor weight was determined by subtracting the weight of an amputated normal foot from that of a tumor-bearing foot. Previous studies have shown that T241 fibrosarcoma starts seeding the lung parenchyma by Day 10 after foot tumor implantation; by Day 17, virtually all animals have lung macro- and/or micrometastases. The animals were then randomized into control and experimental groups, and appropriate therapy was started after amputation of the tumor-bearing foot.\nTreatments consisted of intravenous (orbital sinus) injections of liposomes containing CRP, liposomal CRP-peptide of Example 2, or liposomal CRP-peptide of Example 2 plus intraperitoneal injections of non-encapsulated soluble recombinant interleukin-2 (Cetus Corp., Emeryville, Calif.), or non-encapsulated interleukin-2 (IL-2) alone, whereas the control groups received either no treatment, liposomes containing buffer medium alone, or liposomes containing buffer medium plus non-encapsulated CRP peptide. […] On Day 35 of the experiment, all animals were killed, and the lungs were evaluated for number and size of metastases.\nTumor metastases could be clearly recognized as raised, hemorrhagic, opaque, and dense nodules, distinguishable from the smooth, glistening, spongy, and pink normal lung parenchyma. […] To obtain an approximate assessment of the total metastatic tumor burden in the lungs, the \"metastatic index\", reflecting both number and size of metastases, was calculated as follows. […]", "data": [{"substance": "H-IYLGGPFSPNVL-OH [Soluble CRP-peptide]", "values": [{"measurement": "No. of Metastatic Foci (+ SEM)", "setting": "MLV: 0.25 μg CRP or CRP-peptide i.v. 3x per week for 2 weeks", "value": "12.9 ± 2.9"}, {"measurement": "No. Animals with Lung Metastases", "setting": "MLV: 2.5 μmols lipid containing 0.25 μg CRP or CRP-peptide i.v. 3x per week for 2 weeks", "value": "10/10"}, {"measurement": "Metastatic Index (+ SEM)", "setting": "mean of group, MLV: 0.25 μg CRP or CRP-peptide i.v. 3x per week for 2 weeks", "value": "49.7 ± 10.1"}]}]}
